The source of these data is patent publication US20210338782A1, “STORAGE STABLE SOMATOSTATIN-DOPAMINE CHIMERIC COMPOUNDS AND SALT FORMS THEREOF” (Cydan II, Inc., priority 2019, published 2021).

“Also recorded” adds a separate entry of the source. Where a name gives a salt, the structure may show the parent alone.

Assay type in all cases: physicochemical
Data set [1] is described as follows: Thermostability of alternative salt forms of lanreotide and TBR-760 (UPLC). The conditions noted are these: for compound degraded: 4 weeks at 60° C. and ambient humidity; for thermostability in words: increasing temperature and humidity (25° C./60% RH, 40° C./75% RH, 60° C.) up to 4 weeks. The procedure:
(§1) Each TBR-760 salt was further evaluated for thermolytic stability over time by setting up three different exposure conditions (25° C. at 60% relative humidity (RH); 40° C. at 75% RH; or 60° C. with open and closed container systems (open dish/closed dish). Approximately 50 mg of each salt form was weighed in a nitrogen-flushed glove box for use in the studies. All samples were stored at −20° C. in a good laboratory practice (GLP) freezer both before and after exposure to the indicated conditions.
(§2) The stability of each salt form was assessed by monitoring the post-exposure drug peak purity and by evaluating the post-exposure visual appearance of the salt. The samples were removed from the exposure conditions and allowed to equilibrate to ambient conditions for 15-20 mins. An appropriate amount of each sample was weighed for analysis and dissolved in diluent (deionized water containing 0.1% TFA) to obtain a stock concentration of 1 mg/mL. The stock solution was then diluted to 0.125 mg/mL in an HPLC vial using diluent and the samples were run on a Waters Acquity UPLC system using the parameters shown in Table 4.
We conducted thermostability studies of lanreotide acetate substantially as described in Example 6. These experiments confirmed that lanreotide acetate is […] when exposed to increasing temperature and humidity conditions over time (FIG. 45). […] (FIG. 45). This degree of thermal and humidity instability is disfavored for a pharmaceutical agent, particularly one intended for patient self-administration at home.
To determine whether a thermostable salt form of TBR-760 could be manufactured, a salt exchange was performed as described in Example 1 to generate bromide and chloride salts of TBR-760. Lanreotide bromide and lanreotide chloride salts were also generated and assessed for thermostability to evaluate the effect of the salt form on compound stability and to compare stability of lanreotide and TBR-760 of each salt.
UPLC assays performed as described in Example 6 were further used to determine the number of degradants—and thus the number of impurities—in each sample. Results showing the purity assessment of each sample following thermostability studies are shown in FIGS. 48A-48B (lanreotide and TBR-760 acetate salts), 49A-49B (lanreotide and TBR-760 bromide salts), and 50A-50B (lanreotide and TBR-760 chloride salts).

A short description of data set [2]: Photostability of alternative salt forms of lanreotide and TBR-760. The conditions noted are these: 1.2 million lux hours visible light or 200 watt hours/square meter UV light. From the text: (§3) In order to evaluate the light sensitivity and stability of TBR-760 chimeric peptide salts, all five salt forms were exposed to ultraviolet (UV) and visible light according to International Council for Harmonisation of Technical Requirements for Pharmaceuticals for Human Use (ICH) guideline Q1B for photostability testing. In brief, a Caron 6540-1 photostability chamber unit with separate UV and light chambers was used for the studies. Visible light exposure was 1.2 million lux hours and UV exposure was 200 watt hours/square meter.
Photostability of lanreotide acetate, lanreotide bromide, lanreotide chloride, TBR-760 acetate, TBR-760 bromide and TBR760 chloride was tested according to the methods of Example 7. Four samples were prepared for each salt form: one control for each of the UV and visible light exposure conditions (controls isolated from light) and one sample for exposure to each of the UV and visible light conditions. For each sample, 2-5 mg of the salt was weighed into 3 mL clear serum vials and stoppered. Vials containing control samples were wrapped in aluminum foil.
Following exposure to visible and UV light, all lanreotide and TBR-760 salts were analyzed by UPLC as described in Example 7.

Data set [3] in a line: Thermogravimetric analysis (TGA) of TBR-760 salt forms. Particulars: ramp 5.0° C. per minute from 25 to 400° C.; listed as sulfate salt. The method, then:
Thermogravimetric analyses (TGA) were performed on all TBR-760 salt forms to evaluate thermal stability of each salt form. Studies were performed using a TGA-Q500 thermogravimetric analyzer (TA Instruments). The weight of each compound was measured while the temperature was increased at a ramp rate of 5.0° C. per minute from 25 to 400° C. […] The weight loss may be indicative of loss of adsorbed moisture, entrained solvent or volatile impurities. Decomposition of the compound appears to start at about 234° C. (sulfate salt), 245° C. (chloride salt), 252° C. (tosylate salt), and 255° C. (mesylate salt). For the acetate salt, a further ˜5% loss of weight between 110° C. and 200° C. was observed, indicating loss of volatile acetate ions over that temperature range (FIG. 8).

Data set [4] in a line: Solid state (thermolytic) stability of TBR-760 salt forms, open container, UPLC peak purity and appearance. The procedure:
as §1, §2

Data set [5] is described as follows: Photostability of TBR-760 salt forms (ICH Q1B, visible and UV light), appearance and UPLC purity.
Text: as §3
Samples were placed in clear, sealed vials and stored in the appropriate chamber alongside dark controls in amber colored vials wrapped in aluminum foil. Control samples were stored in sealed amber vials at −20° C. The appearance of exposed samples was examined visually before being analyzed via UPLC.

[6] abbreviates: listed as hydrobromide salt of TBR-760.
Where [7] appears, read: 25° C. at 60% RH, open container.
[8] abbreviates: 40° C. at 75% RH, open container.
Setting [9] is: UPLC peak purity, 25° C. at 60% RH, open container.
The mark [10] stands for this setting: UPLC peak purity, 40° C. at 75% RH, open container.
[11] abbreviates: UPLC peak purity, 60° C., open dish.
The mark [12] stands for this setting: listed as lanreotide hydrobromide.

Take `CCCN1C[C@H](CSCC(=O)NCCCC[C@@H](NC(=O)CSC[C@@H]2C[C@@H]3c4cccc5[nH]cc(c45)C[C@H]3N(CCC)C2)C(=O)N[C@H]2CSSC[C@@H](C(=O)N[C@H](C(N)=O)[C@@H](C)O)NC(=O)[C@H](CC)NC(=O)[C@H](CCCCN)NC(=O)[C@@H](Cc3c[nH]c4ccccc34)NC(=O)[C@H](Cc3ccc(O)cc3)NC2=O)C[C@@H]2c3cccc4[nH]cc(c34)C[C@H]21` [TBR-760 bromide, Dop2-D-Lys(Dop2)-cyclo[Cys-Tyr-D-Trp-Lys-Abu-Cys]-Thr-NH2]: the compound degraded entry in data set [1] is “more than 23%”. Besides, the thermostability in words entry in data set [1] (setting [6]) is “significantly degraded”. The “photostability in words (UPLC purity)” value is “greater loss of purity than TBR-760 acetate or TBR-760 chloride” in data set [2] and “significantly degraded” in data set [2] (setting [6]). Moreover, the “visible appearance after exposure to visible and UV light” value in data set [2] (versus control) was “did not visibly change”.

In the case of `CC(C)[C@@H]1NC(=O)[C@H](CCCCN)NC(=O)[C@@H](Cc2c[nH]c3ccccc23)NC(=O)[C@H](Cc2ccc(O)cc2)NC(=O)[C@@H](NC(=O)[C@H](N)Cc2ccc3ccccc3c2)CSSC[C@@H](C(=O)N[C@H](C(N)=O)[C@@H](C)O)NC1=O` [lanreotide acetate, lanreotide, reference compound], in data set [1], the thermostability in words result was “thermostable; also recorded: stable”. For the same compound, the “photostability in words (UPLC purity)” value in data set [2] was “stable to both visible and UV light”.

As for `CCCN1C[C@H](CSCC(=O)NCCCC[C@@H](NC(=O)CSC[C@@H]2C[C@@H]3c4cccc5[nH]cc(c45)C[C@H]3N(CCC)C2)C(=O)N[C@H]2CSSC[C@@H](C(=O)N[C@H](C(N)=O)[C@@H](C)O)NC(=O)[C@H](CC)NC(=O)[C@H](CCCCN)NC(=O)[C@@H](Cc3c[nH]c4ccccc34)NC(=O)[C@H](Cc3ccc(O)cc3)NC2=O)C[C@@H]2c3cccc4[nH]cc(c34)C[C@H]21` [TBR-760 sulfate, Dop2-D-Lys(Dop2)-cyclo[Cys-Tyr-D-Trp-Lys-Abu-Cys]-Thr-NH2], the “TGA start of decomposition” value in data set [3] is “about 234 °C”. Also, the “Appearance, T = 2 wk” value was “White” in data set [4] (setting [7]); “White” in data set [4] (setting [8]); “White” in data set [4] (60° C., open dish). Further, the “Appearance, T = 4 wk” value was “White” in data set [4] (setting [7]); “White” in data set [4] (setting [8]); “White” in data set [4] (60° C., open dish). Moreover, the “Appearance, T = 3 d” value is reported as “White” in data set [4] (setting [7]); “White” in data set [4] (setting [8]); “White” in data set [4] (60° C., open dish). For the same compound, the “Purity, T = 2 wk” value in data set [4] (setting [9]) is reported as 97.34; in data set [4] (setting [10]) it was 97.08; in data set [4] (setting [11]), 93.7. For the same compound, the results for the “Purity, T = 4 wk” value in data set [4] (setting [9]), in data set [4] (setting [10]) and in data set [4] (setting [11]) were 97.75, 97.3 and 92.01, respectively. Moreover, the “Purity, Control” value in data set [4] (UPLC peak purity, control, stored at -20° C.) came to 98.04; in data set [5] (UPLC, control in sealed amber vial at -20° C., listed as Sulphate), 98.04. Besides, the “Appearance, Control” value in data set [4] (control, stored at -20° C.) was “White”; in data set [5] (control in sealed amber vial at -20° C.), “white”. In addition, in data set [4] (two weeks at 60° C., open dish, UPLC, listed as sulfate salt), the “additional degradants in chromatogram versus control” value is “more than 10”. Also, in data set [5] (UPLC, UV 200 watt hours/square meter, clear sealed vial, listed as Sulphate), the “Purity, UV-exposed” value was 96.24. In data set [5] (UPLC, dark control in UV chamber, listed as Sulphate), the “Purity, Dark Ctrl-UV” value was 98.17. In data set [5] (UPLC, dark control in visible light chamber, listed as Sulphate), the “Purity, Dark Crtl-Light” value is 98.19. The “Purity, Light-exposed” value in data set [5] (UPLC, visible light 1.2 million lux hours, clear sealed vial, listed as Sulphate) was determined as 94.82. Also, the “Appearance, UV-exposed” value is listed as “white to off-white” in data set [5] (UV 200 watt hours/square meter, clear sealed vial) and “off-white” in data set [5] (UV 200 watt hours/square meter, clear sealed vial, listed as Sulphate). Also, the “Appearance, Dark Ctrl-UV” value in data set [5] (dark control in UV chamber, amber vial wrapped in aluminum foil) is “white”. The “Appearance, Dark Crtl-Light” value in data set [5] (dark control in visible light chamber, amber vial wrapped in aluminum foil) was “white”. For the same compound, in data set [5] (visible and UV light, UPLC), the “degradation upon exposure to visible or UV light, in words” value was “more resistant to degradation than TBR-760 acetate”. Further, the “Appearance, Light-exposed” value is “no visible discoloration” in data set [5] (visible light 1.2 million lux hours, clear sealed vial) and “white” in data set [5] (visible light 1.2 million lux hours, clear sealed vial, listed as Sulphate).

For `CC(C)[C@@H]1NC(=O)[C@H](CCCCN)NC(=O)[C@@H](Cc2c[nH]c3ccccc23)NC(=O)[C@H](Cc2ccc(O)cc2)NC(=O)[C@@H](NC(=O)[C@H](N)Cc2ccc3ccccc3c2)CSSC[C@@H](C(=O)N[C@H](C(N)=O)[C@@H](C)O)NC1=O` [lanreotide bromide, lanreotide, reference compound], the compound degraded result in data set [1] is listed as “more than 7%”. For the same compound, the thermostability in words entry in data set [1] (setting [12]) is “moderately stable; also recorded: less stable than lanreotide acetate”. In addition, the “photostability in words (UPLC purity)” value in data set [2] (setting [12]) is “moderately stable”.
